Data on two compounds can be found in ChEMBL document CHEMBL3046586, “Lethal and sublethal effects of buprofezin and imidacloprid on Bemisia tabaci (Hemiptera: Aleyrodidae)” (2011).

≈ marks a conversion by molar mass, not a printed value. Calls of active or inactive are those of the source. No cut-off for these calls is given here.

The subject of test [1] is Bemisia tabaci. As to the kind of experiment: Insecticidal activity against male Bemisia tabaci (sweet potato whitefly) in compound treated cucumber leaves assessed as mortality at 10000 ppm at 25 +/- 1 degC, 70 +/- 5% RH after 48 hr (reference value: 6.3%). The class given is functional.
Test [2] relates to Bemisia tabaci. Put plainly: Insecticidal activity against Bemisia tabaci (sweet potato whitefly) at egg stage in compound treated cucumber leaves assessed as egg hatch at 10000 ppm at 25 +/- 1 degC, 70 +/- 5% RH after 10 days (reference value: 91%). The class given is functional.
The test system of test [3] is Bemisia tabaci. As to the kind of experiment: Insecticidal activity against Bemisia tabaci (sweet potato whitefly) at egg stage in compound treated cucumber leaves assessed as egg hatch at 8000 ppm at 25 +/- 1 degC, 70 +/- 5% RH after 10 days (reference value: 91%). The class given is functional.
For test [4], the system named is Bemisia tabaci. Put plainly: Insecticidal activity against Bemisia tabaci (sweet potato whitefly) at egg stage in compound treated cucumber leaves assessed as egg hatch at 2000 ppm at 25 +/- 1 degC, 70 +/- 5% RH after 10 days (reference value: 91%). The class given is functional.
Test [5] concerns Bemisia tabaci. Put plainly: Insecticidal activity against male Bemisia tabaci (sweet potato whitefly) in compound treated cucumber leaves assessed as mortality at 8000 ppm at 25 +/- 1 degC, 70 +/- 5% RH after 48 hr (reference value: 6.3%). The class given is functional.
Test [6] deals with Bemisia tabaci. Put plainly: Insecticidal activity against male Bemisia tabaci (sweet potato whitefly) in compound treated cucumber leaves assessed as mortality at 2000 ppm at 25 +/- 1 degC, 70 +/- 5% RH after 48 hr (reference value: 6.3%). The class given is functional.
The test system of test [7] is Bemisia tabaci. Put plainly: Insecticidal activity against adult female Bemisia tabaci (sweet potato whitefly) in compound treated cucumber leaves assessed as mortality at 10000 ppm at 25 +/- 1 degC, 70 +/- 5% RH after 48 hr (reference value: 9.3%). The class given is functional.
The test system of test [8] is Bemisia tabaci. As to the kind of experiment: Insecticidal activity against adult female Bemisia tabaci (sweet potato whitefly) in compound treated cucumber leaves assessed as mortality at 8000 ppm at 25 +/- 1 degC, 70 +/- 5% RH after 48 hr (reference value: 9.3%). The class given is functional.
For test [9], the system named is Bemisia tabaci. As to the kind of experiment: Insecticidal activity against adult female Bemisia tabaci (sweet potato whitefly) in compound treated cucumber leaves assessed as mortality at 2000 ppm at 25 +/- 1 degC, 70 +/- 5% RH after 48 hr (reference value: 9.3%). In kind it is functional.
Test [10] relates to Bemisia tabaci. Put plainly: Insecticidal activity against Bemisia tabaci (sweet potato whitefly) at pupae stage in compound treated cucumber leaves assessed as mortality measured as dry larvae and detached from leaf at 25 +/- 1 degC, 70 +/- 5% RH after 7 days. In kind it is functional. To be noted: 168 h.
In test [11] the test system is Bemisia tabaci. As to the kind of experiment: Insecticidal activity against Bemisia tabaci (sweet potato whitefly) at third instar larvae stage in compound treated cucumber leaves assessed as mortality measured as dry larvae and detached from leaf at 25 +/- 1 degC, 70 +/- 5% RH after 7 days. To be noted: 168 h. In kind it is functional.
In test [12] the test system is Bemisia tabaci. As to the kind of experiment: Insecticidal activity against Bemisia tabaci (sweet potato whitefly) at second instar larvae stage in compound treated cucumber leaves assessed as mortality measured as dry larvae and detached from leaf at 25 +/- 1 degC, 70 +/- 5% RH after 7 days. To be noted: 168 h. In kind it is functional.
The subject of test [13] is Bemisia tabaci. Put plainly: Insecticidal activity against adult female Bemisia tabaci (sweet potato whitefly) in compound treated cucumber leaves assessed as offspring sex ratio at LC25 concentration at 25 +/- 1 degC, 70 +/- 5% RH after 48 hr (Rvb Female/Female + male)= 0.60 no unit). In kind it is functional.
Test [14] has as its system Bemisia tabaci. As to the kind of experiment: Insecticidal activity against adult female Bemisia tabaci (sweet potato whitefly) in compound treated cucumber leaves assessed as longevity at LC25 concentration at 25 +/- 1 degC, 70 +/- 5% RH after 48 hr (reference value: 8.31 days). In kind it is functional.
Test [15] relates to Bemisia tabaci. As to the kind of experiment: Insecticidal activity against adult female Bemisia tabaci (sweet potato whitefly) in compound treated cucumber leaves assessed as egg hatch at LC25 concentration at 25 +/- 1 degC, 70 +/- 5% RH after 48 hr (reference value: […]). In kind it is functional.
In test [16] the test system is Bemisia tabaci. Put plainly: Insecticidal activity against adult female Bemisia tabaci (sweet potato whitefly) in compound treated cucumber leaves assessed as laid eggs at LC25 concentration at 25 +/- 1 degC, 70 +/- 5% RH after 48 hr. The class given is functional, organism-based.
Test [17] concerns Bemisia tabaci. Put plainly: Insecticidal activity against Bemisia tabaci (sweet potato whitefly) at first instar larvae stage in compound treated cucumber leaves assessed as mortality measured as dry larvae and detached from leaf at 25 +/- 1 degC, 70 +/- 5% RH after 7 days. The class given is functional. As to conditions: 168 h.
Test [18] concerns Bemisia tabaci. Put plainly: Insecticidal activity against male Bemisia tabaci (sweet potato whitefly) in compound treated cucumber leaves assessed as mortality after 48 hr. In kind it is functional.
In test [19] the test system is Bemisia tabaci. Put plainly: Insecticidal activity against adult female Bemisia tabaci (sweet potato whitefly) in compound treated cucumber leaves assessed as mortality after 48 hr. The class given is functional.
For test [20], the system named is Bemisia tabaci. Put plainly: Insecticidal activity against Bemisia tabaci (sweet potato whitefly) at egg stage in compound treated cucumber leaves assessed as mortality measured as failure to hatch at 25 +/- 1 degC, 70 +/- 5% RH after 10 days. The class given is functional. As to conditions: 240 h.

For the compound `CC(C)N1C(=O)N(c2ccccc2)CS/C1=N\C(C)(C)C` [BUPROFEZIN], the mortality at 10000 ppm in the test on Bemisia tabaci [1] came out at 19%; in the test with Bemisia tabaci [7] it was 9.3%. Besides, the Activity with Bemisia tabaci [2] is given as 72%; in the test on Bemisia tabaci [3], 68%; in the test on Bemisia tabaci [4], 88%; with Bemisia tabaci [15], 66%. In addition, the mortality at 8000 ppm worked out at 10% in the test with Bemisia tabaci [5] and 8% with Bemisia tabaci [8]. The mortality at 2000 ppm with Bemisia tabaci [6] is 11.3%; in the test on Bemisia tabaci [9], 8%. Further, the LC50 with Bemisia tabaci [10] is 979 µg/mL (≈ 3210 µM); with Bemisia tabaci [11], 44.7 µg/mL (≈ 146 µM); in the test on Bemisia tabaci [12], 10.9 µg/mL (≈ 35.8 µM); with Bemisia tabaci [17], 0.99 µg/mL (≈ 3.24 µM). For the same compound, the Ratio with Bemisia tabaci [13] was determined as 0.5. Moreover, in the test with Bemisia tabaci [14], the Time amounted to 4.85 days. For the same compound, the outcome with Bemisia tabaci [16] was Active.
In the case of `O=[N+]([O-])/N=C1\NCCN1Cc1ccc(Cl)nc1` [IMIDACLOPRID], the median lethal concentration (LC50) in the test with Bemisia tabaci [18] is 11.8 µg/mL (≈ 46.2 µM); with Bemisia tabaci [19] (Bemisia tabaci, 48 h), 71.6 µg/mL (≈ 280 µM); in the test with Bemisia tabaci [10] it was 2850 µg/mL (≈ 11200 µM); in the test on Bemisia tabaci [11], 335 µg/mL (≈ 1310 µM); in the test with Bemisia tabaci [12], 85.4 µg/mL (≈ 334 µM); with Bemisia tabaci [17], 19.3 µg/mL (≈ 75.5 µM). For the same compound, the LC50 with Bemisia tabaci [20] was 151 µg/mL (≈ 591 µM). Also, in the test on Bemisia tabaci [19], the LC25 amounted to 4.64 ppm. The Ratio with Bemisia tabaci [13] amounted to 0.56. For the same compound, the Time in the test with Bemisia tabaci [14] was found to be 11.7 days. Besides, in the test with Bemisia tabaci [15], the Activity came out at 87.42%. Also, the result in the test on Bemisia tabaci [16] was inactive.
